{"source": "patent US20100278853A1", "about": "“C[…] V3 LOOP PEPTIDES AS NOVEL IMMUNOGENS AND RECEPTOR ANTAGONISTS” (YEDA RESEARCH AND DEVELOPMENT CO., LTD., priority 2003, published 2010)", "key": {"447Fv": {"target": "447Fv", "assay": "Fluorescence quenching of 447Fv upon titration with the peptide", "set-up": "species or system human", "details": "read-out: dissociation constant / binding affinity for 447Fv", "protocol": "The R5A-M1 peptide binds 447Fv with a dissociation constant of 10 nM as determined by fluorescence quenching of 447F upon titration with the peptide, so is within one order of magnitude of the binding affinity of the V3 peptide (˜1 nM)."}, "447": {"tested_on": "447", "assay": "Binding affinity of V3 peptides to mAb 447 (method not described)", "set-up": "species or system human", "details": "relative to affinity of 447 for V3MN peptide"}, "[1]": {"tested_on": "R5 and X4 tropic virus strains", "details": "against both R5 and X4 tropic virus strains; cited from earlier work"}}}
{"substance": "CRKSIHC—GPGRCFYTTGC [R5A-M1]", "values": [{"measurement": "Kd", "setting": "447Fv", "result": 10, "unit": "nM"}]}
{"substance": "TRKSIRIQRGPGRAFVTIGK [V3IIIB, 310-329 gp120IIIB V3 loop peptide expressed in E. coli]", "values": [{"measurement": "association constant with 447 compared with the corresponding V3MN peptide", "setting": "447", "result": "one order of magnitude lower"}]}
{"substance": "α-defensin: low molecular weight granulocyte protein, pdb code 1dfn", "values": [{"measurement": "anti-HIV activity", "setting": "[1]", "result": "anti-HIV activity"}]}
